Entries after “also recorded” stand apart in the source; their conditions may differ. Residues, ends and D or L forms follow the SMILES beside them. *: point of attachment. Fluorescein(5-Mal) = O=C1OC2(c3ccc(O)cc3Oc3cc(O)ccc32)c2ccc(N3C(=O)CC(*)C3=O)cc21
Assays:
in vivo = settings: male, SKH, mouse, whole blood, iv, 100 nmol
Method: Five 8-week-old SKH male mice were injected intravenously with 100 nmol [10.75 mg/kg for 25 gm mouse] of FAM-HNP401 in 100 μl of sterile water. Prior to blood draw mice were anesthetized with a 1:1 cocktail of ketamine: midazolam. Tail pricks were performed at 1 min, 10 min, 20 min, 30 min, 1 hr, and 2 hrs after injection to collect 5 μl whole blood which was dissolved in 100 μl Agilent ICP-MS tuning buffer. Samples were centrifuged and equal volume of supernatants were analyzed using a Tecan fluorescence plate reader.

human sural nerve = test: Topical application of FAM-labelled peptides on human nerve sections; assay type: binding
From the text: To determine the affinity of phage selected peptides for binding to human nerve they were chemically synthesized by solid-phase synthesis and labeled with fluorescein at the C-terminus via a GGC linker. Peptides were topically applied to sectioned human sural nerve and human temporalis muscle to determine nerve to muscle contrast. […] To confirm binding and contrast of HNP401 for additional nerve types binding was compared in nerve and muscle with both HNP401 and NP41 on facial brachial plexus nerve (FIG. 9). […] FAM-HNP401 was additionally tested topically on ex-vivo tissue for labeling of mouse facial nerve with surrounding muscle (FIG. 10, J-M).
To test the affinity of selected phage display peptides for binding to human nerves, they were chemically synthesized by solid-phase synthesis and labeled with fluorescein at the C-terminus. Peptides were topically applied to sections of surgically harvested human sural nerve and temporalis muscle to determine nerve to muscle contrast for selected peptides and controls (FIG. 23). […] To quantify differential binding to nerve versus muscle, fluorescence signal intensity was measured for ROIs from the perineurium of select nerves and human temporalis muscle.
Human sural nerve, antebrachial nerve and laryngeal nerve and temporalis muscle were obtained under IRB protocol number 130837 for Dr. Quyen Nguyen. Human peripheral nerves (typically sural) were obtained from patients undergoing nerve resection procedures. Human nerves from prostate gland of two patients were acquired under Moores Cancer Centre Biorepository IRB protocol number 090401. Tissue were sectioned and mounted on glass slides or Cryojane tape. Tissue sections were placed in a humidifier chamber for 30 min before application of the peptide solution. Peptides were diluted to appropriate concentration in 0.5×HBSS prior to topical application. 50 μl of peptide solution of with known concentration (1 μM to 375 μM) were applied to 10 μm nerve sections on tape or slides and incubated for 30 minutes in a humidifier chamber. After incubation with peptide nerve sections were washed with twice with 0.5×HBSS and once with 1×PBS. A cover-slip was applied and slides were imaged immediately on either a Zeiss Lumar dissecting scope of Nikon A1 confocal microscope. For confocal imaging tissue sections of 10 μm thickness were imaged with 488 nm laser excitation 515 (25) and a 10× air objective and a […] size. For immunohistochemistry the confocal Images were acquired with a 20× air objective at 0.4 μm/pixel.
Image J was used to analyze and compare images acquired using the confocal microscope and the Lumar dissecting scope. For each experimental set where probes were compared, we kept the acquisition parameters identical so as to directly compare the data obtained. […] All raw image files for a given experimental cohort were loaded at the same time into Image J as 16-bit tiff images. We then levelled the image for tissue treated with FAM-HNP401. Once these levels were set, the settings are propagated to all images in one step using Image J. The brightest image is set as the benchmark for all other images in the cohort to avoid saturating when the leveling is propagated.

[1] = Stability in ex-vivo human plasma (LC-MS); settings: 37° C., 5 min vs 2 hours
Method: An equal volume of 1:1 acetonitrile:water with 2% acetic acid is added to precipitate the protein matter, supernatant is extracted for analysis by LC-MS on a C18 reverse phase column with gradient of 9:1 H2O+0.05% TFA:Acetonitrile+0.05% TFA to 1:9 H2O+0.05% TFA:Acetonitrile+0.05% TFA in 20 min.
The bladder was drained with a syringe and sutured to avoid spillage and contamination around prostate. […] Stability of FAM-HNP401 in human plasma at 5 minutes and 2 hours was determined by incubation of peptide dye conjugate in human serum prior to analysis by mass spectrometry.

CC(=O)N[C@@H](CO)C(=O)NCC(=O)N[C@@H](CCC(N)=O)C(=O)N[C@H](C(=O)N1CCC[C@H]1C(=O)N[C@@H](Cc1c[nH]c2ccccc12)C(=O)N[C@@H](CCC(=O)O)C(=O)N[C@@H](CCC(=O)O)C(=O)N1CCC[C@H]1C(=O)N[C@@H](Cc1ccc(O)cc1)C(=O)N[C@@H](Cc1ccc(O)cc1)C(=O)N[C@H](C(=O)N[C@H](C(=O)N[C@@H](CCCCN)C(=O)N[C@@H](CCCCN)C(=O)N[C@@H](CO)C(=O)N[C@@H](CO)C(=O)NCC(=O)NCC(=O)N[C@@H](CSC1CC(=O)N(c2ccc3c(c2)C(=O)OC32c3ccc(O)cc3Oc3cc(O)ccc32)C1=O)C(N)=O)C(C)C)C(C)C)C(C)C (stereo partly shown) [FAM-HNP401] (Ac-SGQVPWEEPYYVVKKSSGGC(Fluorescein(5-Mal))-NH2; N-terminus and C-terminus assumed)
half-life (in vivo): 30 min
fluorescent signal intensity compared to FAM-NP41 (human sural nerve; 100 μM topical, human sural nerve): 10.9 ×
fluorescent signal intensity (ROIs of perineurium) (human sural nerve; 100 μM topical, n=4): 1374.44±425.96
binding / contrast among peptides and controls screened on human nerve (human sural nerve; 100 μM topical, sural nerve and temporalis muscle): highest contrast
Nerve to muscle contrast (human sural nerve; human sural nerve vs human temporalis muscle, 100 μM topical, n=4): 3.03±0.57
signal for binding human nerve compared to FAM-NP41 (human sural nerve; topical, human nerve): 10 fold
stability in human plasma [1]: remain intact at 2 hours; also recorded: stable
